Measurements from ChEMBL document CHEMBL4196033, “Potent hydrazone derivatives targeting esophageal cancer cells” (Eur J Med Chem, 2018).

Legend:
Type in all cases: functional, cell-based
EC9706 = experiment: Antiproliferative activity against human EC9706 cells after 72 hrs by MTT assay; conditions: EC9706, 72 h
SMMC-7721 = experiment: Antiproliferative activity against human SMMC7721 cells after 72 hrs by MTT assay; conditions: SMMC-7721, 72 h
PC-3 = experiment: Antiproliferative activity against human PC3 cells after 72 hrs by MTT assay; conditions: PC-3, 72 h
MCF7 = experiment: Antiproliferative activity against human MCF7 cells after 72 hrs by MTT assay; conditions: MCF7, 72 h
MGC-803 = experiment: Antiproliferative activity against human MGC803 cells after 72 hrs by MTT assay; conditions: MGC-803, 72 h
ECa-109 cell line = experiment: Antiproliferative activity against human EC109 cells after 72 hrs by MTT assay; conditions: ECa-109, 72 h

Structure (SMILES) | IC50 (EC9706) [µM] | IC50 (SMMC-7721) [µM] | IC50 (PC-3) [µM] | IC50 (MCF7) [µM] | IC50 (MGC-803) [µM] | IC50 (ECa-109 cell line) [µM]
O=C(N/N=C/c1cc(Br)cc(Br)c1O)c1cccc(S(=O)(=O)N2CCOCC2)c1 | 2.44 | 7.31 | 9.7 | 16 | 17.8 | 10.3
CCOc1cccc(/C=N/NC(=O)c2cccc(S(=O)(=O)N3CCOCC3)c2)c1O | 15.4 | 6.99 | 15.3 | 19.3 | 18 | 16.5
C/C(=N\NC(=O)c1cccc(S(=O)(=O)N2CCOCC2)c1)c1ccc(F)cc1 | > 100 | > 100 | 81.3 | > 100 | > 100 | > 100
CCN(CC)c1ccc(/C=N/NC(=O)c2cccc(S(=O)(=O)N3CCOCC3)c2)c(O)c1 | 0.92 | 27.1 | 14 | 3.52 | 4.04 | 0.73
C/C(=N\NC(=O)c1cccc(S(=O)(=O)N2CCOCC2)c1)c1ccc(O)cc1 | 71.4 | 88.5 | 36.2 | > 100 | 71.4 | 88.3
O=C(N/N=C/c1ccccn1)c1cccc(S(=O)(=O)N2CCOCC2)c1 | 44.3 | > 100 | 88.1 | > 100 | 81.7 | 55.7
O=C(N/N=C/c1cc(Br)ccc1O)c1cccc(S(=O)(=O)N2CCOCC2)c1 | 29.7 | 9.94 | 7.23 | 26.6 | 14.8 | 11.7
C/C(=N\NC(=O)c1cccc(S(=O)(=O)N2CCOCC2)c1)c1cccc(N)c1O | 3.52 | 2.33 | 2.33 | 1.01 | 0.53 | 5.06
C/C(=N\NC(=O)c1cccc(S(=O)(=O)N2CCOCC2)c1)c1cc(Br)ccc1O | 24.7 | 2.41 | 6.89 | 7.83 | 18 | 5.28
C/C(=N\NC(=O)c1cccc(S(=O)(=O)N2CCOCC2)c1)c1cccc(O)c1 | > 100 | > 100 | > 100 | > 100 | > 100 | > 100
O=c1[nH]cc(F)c(=O)[nH]1 [FLUOROURACIL] | 5.13 | 13.7 | 6.27 | 18.8 | 9.24 | 6.02
O=C(N/N=C/c1ccccc1O)c1cccc(S(=O)(=O)N2CCOCC2)c1 | 19.6 | 12.1 | 13.8 | 29.1 | 25.3 | 14.4
O=C(N/N=C/c1cc(Cl)ccc1O)c1cccc(S(=O)(=O)N2CCOCC2)c1 | 2.15 | 6.82 | 10.5 | 16.4 | 11 | 2.84
C/C(=N\NC(=O)c1cccc(S(=O)(=O)N2CCOCC2)c1)c1ccccc1O | 1.22 | 1.37 | 2.81 | 5.4 | 1.22 | 5.45
O=C(N/N=C/c1ccco1)c1cccc(S(=O)(=O)N2CCOCC2)c1 | > 100 | > 100 | > 100 | > 100 | > 100 | > 100
O=C(N/N=C/c1cccs1)c1cccc(S(=O)(=O)N2CCOCC2)c1 | > 100 | > 100 | > 100 | > 100 | > 100 | > 100
C/C(=N\NC(=O)c1cccc(S(=O)(=O)N2CCOCC2)c1)c1ccccc1 | > 100 | > 100 | > 100 | > 100 | > 100 | > 100
C/C(=N\NC(=O)c1cccc(S(=O)(=O)N2CCOCC2)c1)c1cc(F)ccc1O | 2.21 | 1.15 | 4.41 | 6.65 | 2.26 | 3.27
NNC(=O)c1cccc(S(=O)(=O)N2CCOCC2)c1 | > 100 |  |  |  |  | > 100
C/C(=N\NC(=O)c1cccc(S(=O)(=O)N2CCOCC2)c1)c1cccc(N)c1 | > 100 | > 100 | > 100 | > 100 | > 100 | > 100
C/C(=N\NC(=O)c1cccc(S(=O)(=O)N2CCOCC2)c1)c1cc(O)ccc1O | 3.51 | > 100 | > 100 | > 100 | 9.09 | 21.4
